The results in this text go back to BindingDB's records for doi:10.1016/S0960-894X(96)00246-6 (1996).

Usually IC50 stands for the concentration that gives 50% inhibition.

The test can be described thus: Inhibition of ADP-induced human platelet aggregation.
As to `CC(C)(C)[C@H](NC(=O)[C@H](CC(=O)O)NC(=O)CCCOc1ccc(C(=N)N)cc1)C(=O)O`, half-maximal inhibition (IC50) was put at 230 nM. In the case of `CC(C)[C@H](NC(=O)[C@H](CC(=O)O)NC(=O)CCCOc1ccc(C(=N)N)cc1)C(=O)O` [2-{2-[4-(4-Carbamimidoyl-phenoxy)-butyrylamino]-3-carboxy-propionylamino}-3-methyl-butyric acid (FK633)] it was 100 nM. In turn, `CC(C)C[C@H](NC(=O)[C@H](CC(=O)O)NC(=O)CCCOc1ccc(C(=N)N)cc1)C(=O)O` [(S)-2-{(S)-2-[4-(4-Carbamimidoyl-phenoxy)-butyrylamino]-3-carboxy-propionylamino}-4-methyl-pentanoic acid] showed an IC50 of 130 nM. Molecule `CN(C(=O)[C@H](CC(=O)O)NC(=O)CCCOc1ccc(C(=N)N)cc1)[C@@H](Cc1ccc(O)cc1)C(=O)O` [(S)-3-[4-(4-Carbamimidoyl-phenoxy)-butyrylamino]-N-[(S)-1-carboxy-2-(4-hydroxy-phenyl)-ethyl]-N-methyl-succinamic acid] registered an IC50 of 120 nM. This IC50 and that of the molecule before are within 1.5-fold of each other.

With `COc1ccc(C[C@H](NC(=O)[C@H](CC(=O)O)NC(=O)CCCCOc2ccc(C(=N)N)cc2)C(=O)O)cc1` [(S)-3-[5-(4-Carbamimidoyl-phenoxy)-pentanoylamino]-N-[(S)-1-carboxy-2-(4-methoxy-phenyl)-ethyl]-succinamic acid], 4500 nM corresponded to half-maximal inhibition (IC50).
